From patent US6855730B2, “3-methylidenyl-2-indolinone modulators of protein kinase” (Sugen, Inc., priority 1998, dated 2005)

Legend:
[1] = biological target: T1, PDGFR-β (Homo sapiens, UniProt P09619); test: Biochemical PDGFR assay (ELISA, PDGFR-β expressing NIH 3T3 cell lysate); conditions: read-out: bio PDGF IC50
T1 construct: host or cells: NIH 3T3
Method in brief: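 PDGFR-β from NIH 3T3 cell lysate captured on anti-PDGFR (28D4C10)-coated plates; compound preincubated 30 min, then 20 μM ATP kinase reaction 30 min at room temperature, stopped with EDTA. Phosphotyrosine detected by anti-phosphotyrosine antibody, peroxidase conjugate and ABTS/H2O2, read at 410 nm.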

[2] = test system: A431 cells; test: A431 growth assay (2% FBS); assay type: cell-based; conditions: Homo sapiens, A-431, read-out: A431 growth (2% FBS) IC50

T1 sequence (P09619 33-1106): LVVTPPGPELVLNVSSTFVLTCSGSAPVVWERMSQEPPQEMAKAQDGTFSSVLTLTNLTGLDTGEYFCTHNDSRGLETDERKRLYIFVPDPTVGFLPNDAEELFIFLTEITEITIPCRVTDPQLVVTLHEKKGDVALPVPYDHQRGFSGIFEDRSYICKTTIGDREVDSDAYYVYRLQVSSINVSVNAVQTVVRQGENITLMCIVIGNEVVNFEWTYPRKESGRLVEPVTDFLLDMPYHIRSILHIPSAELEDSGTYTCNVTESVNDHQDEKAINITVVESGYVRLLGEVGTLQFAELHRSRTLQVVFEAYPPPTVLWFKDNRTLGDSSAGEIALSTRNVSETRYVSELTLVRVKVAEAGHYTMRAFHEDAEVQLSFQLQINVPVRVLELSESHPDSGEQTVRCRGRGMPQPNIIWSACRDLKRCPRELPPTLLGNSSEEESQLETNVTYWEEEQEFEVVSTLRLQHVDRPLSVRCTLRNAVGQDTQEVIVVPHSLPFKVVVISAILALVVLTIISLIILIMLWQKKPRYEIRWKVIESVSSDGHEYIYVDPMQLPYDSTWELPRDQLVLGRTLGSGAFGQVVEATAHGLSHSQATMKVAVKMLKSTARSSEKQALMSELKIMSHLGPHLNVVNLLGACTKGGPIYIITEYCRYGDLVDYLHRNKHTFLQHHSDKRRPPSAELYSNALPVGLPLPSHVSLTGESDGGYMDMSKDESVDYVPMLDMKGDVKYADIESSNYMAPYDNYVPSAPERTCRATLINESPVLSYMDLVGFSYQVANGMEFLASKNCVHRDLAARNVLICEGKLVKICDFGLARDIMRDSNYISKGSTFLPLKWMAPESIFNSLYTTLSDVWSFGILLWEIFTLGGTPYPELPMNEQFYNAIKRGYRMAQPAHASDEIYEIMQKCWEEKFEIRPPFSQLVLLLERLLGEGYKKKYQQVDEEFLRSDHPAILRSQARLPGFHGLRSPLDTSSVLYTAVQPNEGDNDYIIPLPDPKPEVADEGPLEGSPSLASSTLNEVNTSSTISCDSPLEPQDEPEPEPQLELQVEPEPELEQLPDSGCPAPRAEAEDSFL

| SMILES | IC50 [1] [µM] | IC50 [2] [µM] |
| --- | --- | --- |
| COc1ccc(/C=C2/C(=O)Nc3cc(NC(C)=O)ccc32)cc1-c1ccsc1 [Example 18, N-[3-(4-Methoxy-3-thiophene-3-ylbenzylidene)-2-oxo-2,3-dihydro-1H-indol-6-yl]-acetamide] | 86.9 | 0.6 |
| CC(C)c1cc(/C=C2/C(=O)Nc3ccc(Cl)cc32)cc(C(C)C)c1OCCN1CCOCC1 [Example 24, 5-chloro-3-[3,5-diisopropyl-4-(2-morpholin-4-ylethoxy)-benzylidene]-1,3-dihydroindol-2-one] | > 100 | 4.5 |
| COc1cc(C)c(C=C2C(=O)Nc3cc(NC(C)=O)ccc32)cc1C(C)C [Example 27, N-[3-(5-Isopropyl-4-methoxy-2-methyl-benzylidene)-2-oxo-2,3-dihydro-1H-indol-6-yl]-acetamide] | > 100 | 6.4 |
| COc1ccc(C=C2C(=O)Nc3ccccc32)cc1-c1cccc(NC(C)=O)c1 [Example 29, N-[2′-Methoxy-5′-(2-oxo-1,2-dihydroindol-3-ylidenemethyl)-biphenyl-3-yl]-acetamide] | > 100 | 5.6 |
| COc1cc(C)c(/C=C2/C(=O)Nc3ccc(F)cc32)cc1C(C)C [Example 30, 5-Fluoro-3-(5-isopropyl-4-methoxy-2-methyl-benzylidene)-1,3-dihydroindol-2-one] | > 100 | 9.9 |
| COc1ccc(/C=C2/C(=O)Nc3cc(NC(C)=O)ccc32)cc1-c1cccs1 [Example 31, N-[3-(4-Methoxy-3-thiophen-2-ylbenzylidene)-2-oxo-2,3-dihydro-1H-indol-6-yl]-acetamide] | > 100 | 0.3 |
| CC(=O)Nc1ccc2c(c1)NC(=O)/C2=C\c1ccc2c(c1)CCC(C)(C)O2 [Example 33, N-[3-(2,2-Dimethylchroman-6-ylmethylene)-2-oxo-2,3-dihydro-1H-indol-6-yl]-acetamide] | > 100 | 6.7 |
| COc1ccc(/C=C2/C(=O)Nc3ccccc32)cc1-c1ccsc1 [Example 35, 3-(4-Methoxy-3-thiophen-3-ylbenzylidene)-1,3-dihydroindol-2-one] | > 100 | 13.4 |
| COc1cc(C)c(/C=C2/C(=O)Nc3ccc(Br)cc32)cc1C(C)C [Example 36, 5-Bromo-3-(5-isopropyl-4-methoxy-2-methyl-benzylidene)-1,3-dihydroindol-2-one] | > 100 | > 25 |
| COc1cc(/C=C2/C(=O)Nc3ccccc32)c(-c2cccs2)cc1OC [Example 39, 3-(4,5-Dimethoxy-2-thiophen-2-ylbenzylidene)-1,3-dihydroindol-2-one] | > 100 | 9.2 |
| CC(=O)Nc1ccc2c(c1)NC(=O)/C2=C/c1ccc(OCCN2CCOCC2)c(-c2cccs2)c1 [Example 40, N-{3-[4-(2-Morpholin-4-ylethoxy)-3-thiophen-2-ylbenzylidene]-2-oxo-2,3-dihydro-1H-indol-6-yl}-acetamide] | > 100 | 14.2 |
| CCOc1cccc(-c2cc(C=C3C(=O)Nc4ccccc43)ccc2OC)c1 [Example 46, 3-(3′-Ethoxy-6-methoxybiphenyl-3-ylmethylene)-1,3-dihydroindol-2-one] | > 100 | 5.5 |
| COc1cc(C=C2C(=O)Nc3ccccc32)c(-c2ccccc2OC)cc1OC [Example 49, 3-(4,5,2′-Trimethoxybiphenyl-2-ylmethylene)-1,3-dihydroindol-2-one] | > 100 | 20.7 |
| CC(C)c1cc(/C=C2/C(=O)Nc3ccc(Br)cc32)cc(C(C)C)c1OCCN1CCOCC1 [Example 57, 5-Bromo-3-[3,5-diisopropyl-4-(2-morpholin-4-ylethoxy)benzylidene]-1,3-dihydroindol-2-one] | > 100 | 5.8 |
| CCOc1cccc(-c2cc(OC)c(OC)cc2/C=C2/C(=O)Nc3ccccc32)c1 [Example 58, 3-(3′-Ethoxy-4,5-dimethoxybiphenyl-2-ylmethylene)-1,3-dihydroindol-2-one] | > 100 | 10.5 |
| COc1ccc(/C=C2/C(=O)Nc3ccc(Cl)cc32)cc1-c1cccs1 [Example 59, 5-chloro-3-(4-Methoxy-3-thiophen-2-ylbenzylidene)-1,3-dihydroindol-2-one] | > 100 | 6 |
| COc1ccc(/C=C2/C(=O)Nc3ccc(Cl)cc32)cc1-c1cccnc1 [Example 60] | 24.5 | 5.9 |
| COc1cccc(-c2cc(OC)c(OC)cc2/C=C2/C(=O)Nc3ccc(Cl)cc32)c1 [Example 61, 5-Chloro-3-(4,5-3′-Trimethoxybiphenyl-2-ylmethylene)-1,3-dihydroindol-2-one] | > 100 | > 25 |
| COc1cc(/C=C2/C(=O)Nc3ccccc32)c(-c2ccc3ccccc3c2)cc1OC [Example 62, 3-(4,5-Dimethoxy-2-naphthalen-2-ylbenzylidene)-1,3-dihydroindol-2-one] | > 100 | 6 |
